Data published in patent US5561161A, “Methods of administering and pharmaceutical formulations containing n-substituted benzamides and/or acid addition salts thereof” (priority 1994, dated 1996).
Entries after “also recorded” stand apart in the source; their conditions may differ. Structures can show the parent of a compound that is named as a salt. Where two headings read alike, the source gives them in different places.

How the values were obtained:
dopamine2 (D2) receptor = settings: cited from earlier work
[1] = system: 5-hydroxytryptamine3 (5-HT3) receptor; settings: cited from earlier work
[2] = cited from earlier work
human cancer patients = settings: intravenous, cisplatin chemotherapy; cited from earlier work
[3] = system: human lung adenocarcinoma (H-2981); assay: Radiosensitization of human lung adenocarcinoma xenografts in Scid mice; settings: 2 mg/kg i.m., -1 or -2 hours to 1 Gy; hydrochloride
Method: Tumor tissue suspensions were prepared and inoculated subcutaneously into the midback region of 3-5 week old Scid mice so that 10 mm×10 mm tumors were grown in about 25 days. […] The tumor volumes were measured and recorded every 2-3 days and analyzed by a t-test at day 17 after inoculation.

| SMILES | binding to D2 receptor (dopamine2 (D2) receptor) | sodium ion dependence of D2 receptor binding (dopamine2 (D2) receptor) | binding to 5-HT3 receptor [1] | solubility in water / aqueous vehicles [2] | inhibition of emesis (human cancer patients) | solubility in water / aqueous vehicles ([2]; hydrochloride) | radiosensitization, effect of pH (acidic vs neutral form) [3] |
| --- | --- | --- | --- | --- | --- | --- | --- |
| CCN(CC)CCNC(=O)c1cc(Cl)c(N)cc1OC [metoclopramide] | known to bind | sodium ion dependent | known to bind | quite insoluble in water | can inhibit the biological response of emesis | – | – |
| CCN(CC)CCNC(=O)c1cc(Cl)c(N)cc1OC [metoclopramide hydrochloride] | – | – | – | – | – | freely soluble in water | not altered; also recorded: Lack of any measurable difference |
